23 molecules from US20240109900A1, “AZABICYCLIC SHP2 INHIBITORS” (IRBM S.P.A., priority 2021, published 2024) can be followed below.

Where two headings read alike, the source gives them in different places.

The subject of assay [1] is ERK phosphorylation in KYSE-520 cells. Nature of the assay: Phospho-ERK cellular assay. Type of assay: cell-based. The settings on record: KYSE-520 cells, 2 h at 37° C., phospho-ERK1/2 (Thr202/Tyr204) TR-FRET, read-out: PERK IC50. Put shortly: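 TR-FRET read-out of ERK1/2 Thr202/Tyr204 phosphorylation was taken after overnight antibody incubation at room temperature. Before that, KYSE-520 cells were treated 2 h at 37 °C with compound dilutions and lysed 30 min. Percent inhibition relative to vehicle and cell-free wells was fitted four-parametrically to give IC50.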
(In general: In TR-FRET formats the signal depends on donor and acceptor labels being close together.)

For assay [2], the target named is SHP-2 enzyme (Met1-Leu525) (Homo sapiens (Human), UniProt Q06124). Kind of assay: SHP2 inhibition enzymatic assay. The format is biochemical. The settings on record: 0.5 nM SHP-2 activated by 500 nM IRS1 peptide, 75 μM DiFMUP substrate; read-out: SHP2wt-IC50. The gist of the method:
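SHP-2 (Met1-Leu525), 0.5 nM, activated with 500 nM IRS1 bis-phosphopeptide, preincubated 30 min with compounds in HEPES pH 7.2 buffer with 5 mM DTT. 75 μM DiFMUP added for 30 min at room temperature, stopped with bpV; fluorescence read. IC50 from four-parameter logistic fit of % inhibition.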

Chain of SHP-2 enzyme (Met1-Leu525) (Q06124 1-525): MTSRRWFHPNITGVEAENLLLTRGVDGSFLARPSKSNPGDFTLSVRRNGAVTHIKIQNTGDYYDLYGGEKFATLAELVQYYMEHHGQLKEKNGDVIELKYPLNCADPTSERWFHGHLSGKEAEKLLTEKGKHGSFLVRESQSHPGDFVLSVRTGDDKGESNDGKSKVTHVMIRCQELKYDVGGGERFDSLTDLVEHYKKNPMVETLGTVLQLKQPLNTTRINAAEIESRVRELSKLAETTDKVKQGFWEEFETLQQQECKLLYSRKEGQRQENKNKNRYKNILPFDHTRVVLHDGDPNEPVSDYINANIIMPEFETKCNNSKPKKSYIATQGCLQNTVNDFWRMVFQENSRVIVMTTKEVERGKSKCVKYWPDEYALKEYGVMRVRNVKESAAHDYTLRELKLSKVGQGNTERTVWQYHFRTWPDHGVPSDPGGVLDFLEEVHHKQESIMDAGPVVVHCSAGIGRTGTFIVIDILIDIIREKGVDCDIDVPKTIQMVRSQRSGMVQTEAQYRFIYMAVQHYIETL

For orientation: IC50 means the midpoint of a concentration-inhibition curve. As for `NC[C@]1(c2cc(F)ccc2F)[C@@H]2CCN(c3cnc(Sc4ccnc(-n5cccn5)c4Cl)cn3)C[C@@H]21` [Example 402, ((1S,6R,7R)-3-(5-((3-chloro-2-(1H-pyrazol-1-yl)pyridin-4-yl)thio)pyrazin-2-yl)-7-(2,5-difluorophenyl)-3-azabicyclo[4.1.0]heptan-7-yl)methanamine], the half-inhibitory concentration (IC50) in assay [1] (Homo sapiens, KYSE-520, 2 h) was < 1000 nM; in assay [2] it was < 500 nM.

In the case of `Cc1c(-c2n[nH]c3nc(N4CC[C@@H]5[C@H](C4)[C@@]5(CN)c4ncc(C5CC5)cc4F)cnc23)ccc2nn(C)cc12` [Example 185, ((1S,6R,7S)-7-(5-cyclopropyl-3-fluoropyridin-2-yl)-3-(3-(2,4-dimethyl-2H-indazol-5-yl)-1H-pyrazolo[3,4-b]pyrazin-6-yl)-3-azabicyclo[4.1.0]heptan-7-yl)methanamine], the IC50 in assay [1] (Homo sapiens, KYSE-520, 2 h) is < 1000 nM; in assay [2], < 500 nM.

Turning to `Cn1cc2cc(-c3ccc4nc(N5CC[C@@H]6[C@H](C5)[C@@]6(CN)c5ccccc5F)cnc4n3)ccc2n1` [Example 415, ((1S,6R,7R)-7-(2-fluorophenyl)-3-(6-(2-methyl-2H-indazol-5-yl)pyrido[2,3-b]pyrazin-2-yl)-3-azabicyclo[4.1.0]heptan-7-yl)methanamine], the half-inhibitory concentration (IC50) in assay [1] (Homo sapiens, KYSE-520, 2 h) was < 1000 nM; in assay [2], < 500 nM.

Take `Cc1cc([C@@]2(CN)[C@@H]3CCN(c4cnc5c(-c6cccn7nccc67)n[nH]c5n4)C[C@@H]32)no1` [Example 129, ((1S,6R,7S)-7-(5-methylisoxazol-3-yl)-3-(3-(pyrazolo[1,5-a]pyridin-4-yl)-1H-pyrazolo[3,4-b]pyrazin-6-yl)-3-azabicyclo[4.1.0]heptan-7-yl)methanamine]: the IC50 in assay [1] (Homo sapiens, KYSE-520, 2 h) was < 1000 nM; in assay [2] it was < 500 nM.

Consider `CN1Cc2c(ccc(-c3n[nH]c4nc(N5CC[C@@H]6[C@H](C5)[C@@]6(CN)c5ccccc5F)cnc34)c2Cl)C1=O` [Example 350, 5-(6-((1S,6R,7R)-7-(aminomethyl)-7-(2-fluorophenyl)-3-azabicyclo[4.1.0]heptan-3-yl)-1H-pyrazolo[3,4-b]pyrazin-3-yl)-4-chloro-2-methylisoindolin-1-one], for which the half-inhibitory concentration (IC50) in assay [1] (Homo sapiens, KYSE-520, 2 h) was < 1000 nM; in assay [2], < 500 nM.

For the molecule `NC[C@]1(c2ccccc2F)[C@@H]2CCN(c3cnc4c(-c5ccc6c(=O)n(CCO)ccc6c5F)n[nH]c4n3)C[C@@H]21` [Example 351, 6-(6-((1S,6R,7R)-7-(aminomethyl)-7-(2-fluorophenyl)-3-azabicyclo[4.1.0]heptan-3-yl)-1H-pyrazolo[3,4-b]pyrazin-3-yl)-5-fluoro-2-(2-hydroxyethyl)isoquinolin-1(2H)-one], the IC50 is < 1000 nM in assay [1] (Homo sapiens, KYSE-520, 2 h) and < 500 nM in assay [2].

With `CN(C)C(=O)C1(CN)C2CCN(c3cnc4c(-c5ccc6nn(C)cc6c5Cl)n[nH]c4n3)CC21` (stereo not shown) [Example 286, 7-(aminomethyl)-3-(3-(4-chloro-2-methyl-2H-indazol-5-yl)-1H-pyrazolo[3,4-b]pyrazin-6-yl)-N,N-dimethyl-3-azabicyclo[4.1.0]heptane-7-carboxamide], the IC50 in assay [1] (Homo sapiens, KYSE-520, 2 h) is > 5000 nM; in assay [2], < 500 nM.

Regarding `Cc1cc(C2(CN)C3CCN(c4cnc5c(-c6ccnc7ccsc67)n[nH]c5n4)CC32)no1` (stereo not shown) [Example 18, (7-(5-methylisoxazol-3-yl)-3-(3-(thieno[3,2-b]pyridin-7-yl)-1H-pyrazolo[3,4-b]pyrazin-6-yl)-3-azabicyclo[4.1.0]heptan-7-yl)methanamine], the 50% inhibitory concentration (IC50) is < 1000 nM in assay [1] (Homo sapiens, KYSE-520, 2 h) and < 500 nM in assay [2].

In the case of `Cc1csc([C@@]2(CN)[C@@H]3CN(c4cnc5c(-c6ccc7nn(C(F)F)cc7c6Cl)n[nH]c5n4)C[C@@H]32)n1` [Example 466], the half-maximal inhibitory concentration (IC50) in assay [1] is < 1000 nM; in assay [2] it was < 500 nM.

For `NC[C@]1(c2cc(F)ccc2F)[C@@H]2CCN(c3cnc(Sc4ccnc(N)c4Cl)c(N)n3)C[C@@H]21` [Example 414, 3-((2-amino-3-chloropyridin-4-yl)thio)-6-((1S,6R,7R)-7-(aminomethyl)-7-(2,5-difluorophenyl)-3-azabicyclo[4.1.0]heptan-3-yl)pyrazin-2-amine], the IC50 was < 1000 nM in assay [1] (Homo sapiens, KYSE-520, 2 h) and < 500 nM in assay [2].

`NC[C@]1(c2ccccc2F)[C@@H]2CCN(c3cnc4c(-c5cc6cccnc6cc5F)n[nH]c4n3)C[C@@H]21` [Example 175, ((1S,6R,7R)-7-(2-fluorophenyl)-3-(3-(7-fluoroquinolin-6-yl)-1H-pyrazolo[3,4-b]pyrazin-6-yl)-3-azabicyclo[4.1.0]heptan-7-yl)methanamine]: the IC50 in assay [1] (Homo sapiens, KYSE-520, 2 h) was < 1000 nM; in assay [2] it was < 500 nM.

For `Cc1csc(C2(CN)C3CCN(c4cnc5c(-c6cccc(F)c6F)n[nH]c5n4)CC32)n1` (stereo not shown) [Example 86, (3-(3-(2,3-difluorophenyl)-1H-pyrazolo[3,4-b]pyrazin-6-yl)-7-(4-methylthiazol-2-yl)-3-azabicyclo[4.1.0]heptan-7-yl)methanamine], the half-maximal inhibitory concentration (IC50) in assay [1] (Homo sapiens, KYSE-520, 2 h) is < 1000 nM; in assay [2], < 500 nM.

On to `NC[C@]1(c2ccccc2F)[C@@H]2CCN(c3cnc4c(-c5ccc6c(=O)[nH]ccc6c5)n[nH]c4n3)C[C@@H]21` [Example 240, 6-(6-((1S,6R,7R)-7-(aminomethyl)-7-(2-fluorophenyl)-3-azabicyclo[4.1.0]heptan-3-yl)-1H-pyrazolo[3,4-b]pyrazin-3-yl)isoquinolin-1(2H)-one], for which the IC50 is < 1000 nM in assay [1] (Homo sapiens, KYSE-520, 2 h) and < 500 nM in assay [2].

Regarding `COc1nccc(-c2n[nH]c3nc(N4CC[C@@H]5[C@H](C4)[C@@]5(CN)c4ccccc4F)cnc23)c1Cl` [Example 500], the concentration for half-maximal inhibition (IC50) in assay [1] was < 1000 nM; in assay [2], < 500 nM.

As for `NC[C@]1(c2ccccc2F)[C@@H]2CCN(c3cnc4c(-c5ccc6ncncc6c5)n[nH]c4n3)C[C@@H]21` [Example 290, ((1S,6R,7R)-7-(2-fluorophenyl)-3-(3-(quinazolin-6-yl)-1H-pyrazolo[3,4-b]pyrazin-6-yl)-3-azabicyclo[4.1.0]heptan-7-yl)methanamine], the IC50 was < 1000 nM in assay [1] (Homo sapiens, KYSE-520, 2 h) and < 500 nM in assay [2].

`NCC1(c2ccon2)C2CCN(c3cnc4c(-c5cccc(Cl)c5Cl)n[nH]c4n3)CC21` (stereo not shown) [Example 99, (3-(3-(2,3-dichlorophenyl)-1H-pyrazolo[3,4-b]pyrazin-6-yl)-7-(isoxazol-3-yl)-3-azabicyclo[4.1.0]heptan-7-yl)methanamine]: the concentration for half-maximal inhibition (IC50) in assay [1] (Homo sapiens, KYSE-520, 2 h) was < 1000 nM; in assay [2], < 500 nM.

With `NC[C@]1(c2ccccc2F)[C@@H]2CCN(c3cnc4c(-c5ccc6c(c5)CC(=O)N6)n[nH]c4n3)C[C@@H]21` [Example 187, 5-(6-((1S,6R,7R)-7-(aminomethyl)-7-(2-fluorophenyl)-3-azabicyclo[4.1.0]heptan-3-yl)-1H-pyrazolo[3,4-b]pyrazin-3-yl)indolin-2-one], the IC50 in assay [1] (Homo sapiens, KYSE-520, 2 h) was < 1000 nM; in assay [2] it was < 500 nM.

Regarding `NCC1(c2ccccn2)C2CCN(c3nc4nc(Sc5cccnc5C(F)(F)F)cnc4[nH]3)CC21` (stereo not shown) [Example 65, (7-(pyridin-2-yl)-3-(5-((2-(trifluoromethyl)pyridin-3-yl)thio)-1H-imidazo[4,5-b]pyrazin-2-yl)-3-azabicyclo[4.1.0]heptan-7-yl)methanamine], the IC50 in assay [1] (Homo sapiens, KYSE-520, 2 h) is 1000 to 5000 nM; in assay [2], < 500 nM.

For the molecule `NC[C@]1(c2ccccc2F)[C@@H]2CCN(c3cnc4c(-c5cc6c(cc5Cl)NC(=O)C6=O)n[nH]c4n3)C[C@@H]21` [Example 375, 5-(6-((1S,6R,7R)-7-(aminomethyl)-7-(2-fluorophenyl)-3-azabicyclo[4.1.0]heptan-3-yl)-1H-pyrazolo[3,4-b]pyrazin-3-yl)-6-chloroindoline-2,3-dione], the IC50 in assay [1] (Homo sapiens, KYSE-520, 2 h) was < 1000 nM; in assay [2] it was < 500 nM.

For `Cc1cc([C@@]2(CN)[C@@H]3CCN(c4cnc5c(-c6ccc(F)c7ncccc67)c[nH]c5n4)C[C@@H]32)no1` [Example 156, ((1S,6R,7S)-3-(7-(8-fluoroquinolin-5-yl)-5H-pyrrolo[2,3-b]pyrazin-3-yl)-7-(5-methylisoxazol-3-yl)-3-azabicyclo[4.1.0]heptan-7-yl)methanamine], the IC50 in assay [1] (Homo sapiens, KYSE-520, 2 h) was < 1000 nM; in assay [2], < 500 nM.

Take `Cc1c(-c2n[nH]c3nc(N4CC[C@@H]5[C@H](C4)[C@@]5(CN)c4ccccc4F)cnc23)ccc2nn(C)nc12` [Example 205, ((1S,6R,7R)-3-(3-(2,4-dimethyl-2H-benzo[d][1,2,3]triazol-5-yl)-1H-pyrazolo[3,4-b]pyrazin-6-yl)-7-(2-fluorophenyl)-3-azabicyclo[4.1.0]heptan-7-yl)methanamine]: the half-maximal inhibitory concentration (IC50) in assay [1] (Homo sapiens, KYSE-520, 2 h) is < 1000 nM; in assay [2], < 500 nM.

As to `Cc1nc2ccc(-c3n[nH]c4nc(N5CC[C@@H]6[C@H](C5)[C@@]6(CN)c5ccon5)cnc34)c(Cl)c2s1` [Example 124, ((1S,6R,7S)-3-(3-(7-chloro-2-methylbenzo[d]thiazol-6-yl)-1H-pyrazolo[3,4-b]pyrazin-6-yl)-7-(isoxazol-3-yl)-3-azabicyclo[4.1.0]heptan-7-yl)methanamine], the 50% inhibitory concentration (IC50) in assay [1] (Homo sapiens, KYSE-520, 2 h) was < 1000 nM; in assay [2], < 500 nM.

For `NC[C@]1(c2ccccc2F)[C@@H]2CCN(c3cnc4c(-c5cccc(Br)c5Cl)n[nH]c4n3)C[C@@H]21` [Example 162, ((1S,6R,7R)-3-(3-(3-bromo-2-chlorophenyl)-1H-pyrazolo[3,4-b]pyrazin-6-yl)-7-(2-fluorophenyl)-3-azabicyclo[4.1.0]heptan-7-yl)methanamine], the IC50 in assay [1] (Homo sapiens, KYSE-520, 2 h) is < 1000 nM; in assay [2], < 500 nM.
